The text below walks through data of patent US20230183237A1, “COMPETITIVE AND NONCOMPETITIVE INHIBITORS OF THE MUSCARINIC ACETYLCHOLINE RECEPTOR M5” (Vanderbilt University, priority 2020, published 2023).

What is called IC50 is the concentration that inhibits the measured activity by half.

In the test the target is T1, hM5 (Homo sapiens, UniProt P08912).
T1 construct: expressed in transfected cells
T1 sequence (P08912 1-532): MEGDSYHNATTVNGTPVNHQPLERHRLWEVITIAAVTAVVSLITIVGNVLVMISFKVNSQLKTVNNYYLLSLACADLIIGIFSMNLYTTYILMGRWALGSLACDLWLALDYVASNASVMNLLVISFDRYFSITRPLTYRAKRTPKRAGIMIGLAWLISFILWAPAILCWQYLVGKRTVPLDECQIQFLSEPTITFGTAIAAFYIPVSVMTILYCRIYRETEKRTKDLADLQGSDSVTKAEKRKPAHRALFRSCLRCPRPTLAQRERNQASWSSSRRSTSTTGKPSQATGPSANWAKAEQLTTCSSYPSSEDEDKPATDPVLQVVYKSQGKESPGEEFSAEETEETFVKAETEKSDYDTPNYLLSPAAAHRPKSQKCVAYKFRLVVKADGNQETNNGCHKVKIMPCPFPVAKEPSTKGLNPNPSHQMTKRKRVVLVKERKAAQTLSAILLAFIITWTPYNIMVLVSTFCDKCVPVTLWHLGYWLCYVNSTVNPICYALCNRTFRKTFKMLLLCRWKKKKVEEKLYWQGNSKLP
Nature of the test: Calcium mobilization concentration-response (IC50 vs EC80 acetylcholine), CHO hM5. Type of test: cell-based. The conditions noted are these: CELL LINE hM5; vs EC80 acetylcholine; read-out: IC50. In short, it runs like this: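 IC50 values derive from percent maximal acetylcholine response after an EC80 ACh addition, measured as kinetic calcium fluorescence (static ratio, max−min). Test compounds were added 140 s before agonist. Cells: stable hM5-CHO in HEPES-buffered HBSS with 2.5 mM probenecid, pH 7.4; ≥3 independent triplicate determinations.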
On the technique in general: A change in cytosolic calcium serves as a functional read-out for many receptors and channels.
Regarding `Cc1cc(S(=O)(=O)N2CCC(c3cn4ncnc4cc3C(F)F)CC2)sn1` [Compound 494, 5-((4-(7-(difluoromethyl)-[1,2,4]triazolo[1,5-a]pyridin-6-yl)piperidin-1-yl)sulfonyl)-3-methylisothiazole], the IC50 worked out at 21 nM.

With `Cc1cc(S(=O)(=O)N2CCC(c3cn4ncnc4cc3C(F)(F)F)CC2)sn1` [Compound 495, 3-methyl-5-((4-(7-(trifluoromethyl)-[1,2,4]triazolo[1,5-a]pyridin-6-yl)piperidin-1-yl)sulfonyl)isothiazole], the IC50 amounted to 46 nM.

With `CCc1cc2ncnn2cc1C1CCN(S(=O)(=O)c2cnc(C)o2)CC1` [Compound 496, 5-((4-(7-ethyl-[1,2,4]triazolo[1,5-a]pyridin-6-yl)piperidin-1-yl)sulfonyl)-2-methyloxazole], the IC50 stood at 889 nM.

Regarding `Cc1ncc(S(=O)(=O)N2CCC(c3cn4ncnc4cc3C(F)F)CC2)o1` [Compound 497, 5-((4-(7-(difluoromethyl)-[1,2,4]triazolo[1,5-a]pyridin-6-yl)piperidin-1-yl)sulfonyl)-2-methyloxazole], the IC50 amounted to 141 nM.

As for `Cc1ncc(S(=O)(=O)N2CCC(c3cn4ncnc4cc3C(F)(F)F)CC2)o1` [Compound 498, 2-methyl-5-((4-(7-(trifluoromethyl)-[1,2,4]triazolo[1,5-a]pyridin-6-yl)piperidin-1-yl)sulfonyl)oxazole], the IC50 came out at 496 nM.

For the compound `Cc1cc2ncnn2cc1C1CCN(S(=O)(=O)c2conc2C)CC1` [Compound 499, 3-methyl-4-((4-(7-methyl-[1,2,4]triazolo[1,5-a]pyridin-6-yl)piperidin-1-yl)sulfonyl)isoxazole], the IC50 was 4510 nM.

`Cc1cc(S(=O)(=O)N2CCC(c3cn4ncnc4cc3F)CC2)sn1` [Compound 500, 5-((4-(7-fluoro-[1,2,4]triazolo[1,5-a]pyridin-6-yl)piperidin-1-yl)sulfonyl)-3-methylisothiazole]: the IC50 stood at 295 nM.

Turning to `Cc1c(S(=O)(=O)N2CCC(F)(c3cn4ncnc4cc3F)CC2)cnn1C` [Compound 501, 6-(1-((1,5-dimethyl-1H-pyrazol-4-yl)sulfonyl)-4-fluoropiperidin-4-yl)-7-fluoro-[1,2,4]triazolo[1,5-a]pyridine], the IC50 stood at 2090 nM.

Take `Cn1ncc(S(=O)(=O)N2CCC(F)(c3cn4ncnc4cc3F)CC2)c1Cl` [Compound 502, 6-(1-((5-chloro-1-methyl-1H-pyrazol-4-yl)sulfonyl)-4-fluoropiperidin-4-yl)-7-fluoro-[1,2,4]triazolo[1,5-a]pyridine]: the IC50 turned out to be 1630 nM.

Take `Cn1ncc(S(=O)(=O)N2CCC(F)(c3cn4ncnc4cc3F)CC2)c1C#N` [Compound 503, 4-((4-fluoro-4-(7-fluoro-[1,2,4]triazolo[1,5-a]pyridin-6-yl)piperidin-1-yl)sulfonyl)-1-methyl-1H-pyrazole-5-carbonitrile]: the IC50 is 1150 nM.

For `Cn1ncc(S(=O)(=O)N2CCC(F)(c3cn4ncnc4cc3F)CC2)c1C(F)F` [Compound 504, 6-(1-((5-(difluoromethyl)-1-methyl-1H-pyrazol-4-yl)sulfonyl)-4-fluoropiperidin-4-yl)-7-fiuoro-[1,2,4]triazolo[1,5-a]pyridine], the IC50 stood at 1260 nM.

Turning to `O=S(=O)(c1cnn2c1CCC2)N1CCC(F)(c2cn3ncnc3cc2F)CC1` [Compound 505, 6-(1-((5,6-dihydro-4H-pyrrolo[1,2-b]pyrazol-3-yl)sulfonyl)-4-fluoropiperidin-4-yl)-7-fluoro-[1,2,4]triazolo[1,5-a]pyridine], the IC50 amounted to 1310 nM.

Take `O=S(=O)(c1cnn2c1OCCC2)N1CCC(F)(c2cn3ncnc3cc2F)CC1` [Compound 506, 3-((4-fluoro-4-(7-fluoro-[1,2,4]triazolo[1,5-a]pyridin-6-yl)piperidin-1-yl)sulfonyl)-6,7-dihydro-5H-pyrazolo[5,1-b][1,3]oxazine]: the IC50 is 946 nM.

For `Cc1ncc(S(=O)(=O)N2CCC(c3cn4ncnc4cc3F)CC2)o1` [Compound 507, 5-((4-(7-fluoro-[1,2,4]triazolo[1,5-a]pyridin-6-yl)piperidin-1-yl)sulfonyl)-2-methyloxazole], the IC50 is 3070 nM.

For `Cc1cc2ncnn2cc1C1CCN(S(=O)(=O)c2cnn3ccccc23)CC1` [Compound 508, 7-methyl-6-(1-(pyrazolo[1,5-a]pyridin-3-ylsulfonyl)piperidin-4-yl)-[1,2,4]triazolo[1,5-a]pyridine], the IC50 was determined as 20 nM.

Take `CCc1cc2ncnn2cc1C1CCN(S(=O)(=O)c2cnn3ccccc23)CC1` [Compound 509, 7-ethyl-6-(1-(pyrazolo[1,5-a]pyridin-3-ylsulfonyl)piperidin-4-yl)-[1,2,4]triazolo[1,5-a]pyridine]: the IC50 was 150 nM.

For `O=S(=O)(c1cnn2ccccc12)N1CCC(c2cn3ncnc3cc2C(F)F)CC1` [Compound 510, 7-(difluoromethyl)-6-(1-(pyrazolo[1,5-a]pyridin-3-ylsulfonyl)piperidin-4-yl)-[1,2,4]triazolo[1,5-a]pyridine], the IC50 stood at 60 nM.

For `O=S(=O)(c1cnn2ccccc12)N1CCC(c2cn3ncnc3cc2C(F)(F)F)CC1` [Compound 511, 6-(1-(pyrazolo[1,5-a]pyridin-3-ylsulfonyl)piperidin-4-yl)-7-(trifluoromethyl)-[1,2,4]triazolo[1,5-a]pyridine], the IC50 was determined as 102 nM.

Consider `CCc1cc2ncnn2cc1C1CCN(S(=O)(=O)c2cnc3sccn23)CC1` [Compound 512, 5-((4-(7-ethyl-[1,2,4]triazolo[1,5-a]pyridin-6-yl)piperidin-1-yl)sulfonyl)imidazo[2,1-b]thiazole], for which the IC50 came to 115 nM.

Consider `CCc1cc2ncnn2cc1C1CCN(S(=O)(=O)c2cnc(Cl)s2)CC1` [Compound 513, 2-chloro-5-((4-(7-ethyl-[1,2,4]triazolo[1,5-a]pyridin-6-yl)piperidin-1-yl)sulfonyl)thiazole], for which the half-maximal inhibitory concentration (IC50) was 4770 nM.

`CCc1cc2ncnn2cc1C1CCN(S(=O)(=O)c2nncn2C)CC1` [Compound 514, 7-ethyl-6-(1-((4-methyl-4H-1,2,4-triazol-3-yl)sulfonyl)piperidin-4-yl)-[1,2,4]triazolo[1,5-a]pyridine]: the IC50 was greater than 10000 nM.

As for `O=S(=O)(c1cnc2sccn12)N1CCC(c2cn3ncnc3cc2C(F)F)CC1` [Compound 515, 5-((4-(7-(difluoromethyl)-[1,2,4]triazolo[1,5-a]pyridin-6-yl)piperidin-1-yl)sulfonyl)imidazo[2,1-b]thiazole], the IC50 stood at 34 nM.

With `O=S(=O)(c1cnc(Cl)s1)N1CCC(c2cn3ncnc3cc2C(F)F)CC1` [Compound 516, 2-chloro-5-((4-(7-(difluoromethyl)-[1,2,4]triazolo[1,5-a]pyridin-6-yl)piperidin-1-yl)sulfonyl)thiazole], the IC50 came to 1700 nM.

As to `Cn1cnnc1S(=O)(=O)N1CCC(c2cn3ncnc3cc2C(F)F)CC1` [Compound 517, 7-(difluoromethyl)-6-(1-((4-methyl-4H-1,2,4-triazol-3-yl)sulfonyl)piperidin-4-yl)-[1,2,4]triazolo[1,5-a]pyridine], the IC50 was greater than 10000 nM.

`O=S(=O)(c1cnc2sccn12)N1CCC(c2cn3ncnc3cc2C(F)(F)F)CC1` [Compound 518, 5-((4-(7-(trifluoromethyl)-[1,2,4]triazolo[1,5-a]pyridin-6-yl)piperidin-1-yl)sulfonyl)imidazo[2,1-b]thiazole]: the IC50 worked out at 68 nM.

Take `O=S(=O)(c1cnc(Cl)s1)N1CCC(c2cn3ncnc3cc2C(F)(F)F)CC1` [Compound 519, 2-chloro-5-((4-(7-(trifluoromethyl)-[1,2,4]triazolo[1,5-a]pyridin-6-yl)piperidin-1-yl)sulfonyl)thiazole]: the IC50 was 1590 nM.

Take `Cn1cnnc1S(=O)(=O)N1CCC(c2cn3ncnc3cc2C(F)(F)F)CC1` [Compound 520, 6-(1-((4-methyl-4H-1,2,4-triazol-3-yl)sulfonyl)piperidin-4-yl)-7-(trifluoromethyl)-[1,2,4]triazolo[1,5-a]pyridine]: the IC50 is greater than 10000 nM.

`O=S(=O)(c1cnn2ccccc12)N1CCC(c2cn3ncnc3cc2F)CC1` [Compound 521, 7-fluoro-6-(1-(pyrazolo[1,5-a]pyridin-3-ylsulfonyl)piperidin-4-yl)-[1,2,4]triazolo[1,5-a]pyridine]: the IC50 stood at 169 nM.

As for `Cc1cc2ncnn2cc1C1CCN(S(=O)(=O)c2cnn(C)c2Br)CC1` [Compound 522, 6-(1-((5-Bromo-1-methyl-1H-pyrazol-4-yl)sulfonyl)piperidin-4-yl)-7-methyl-[1,2,4]triazolo[1,5-a]pyridine], the IC50 came out at 8 nM.

On to `Cc1cc2ncnn2cc1C1CCN(S(=O)(=O)c2cnc(Cl)s2)CC1` [Compound 523, 2-chloro-5-((4-(7-methyl-[1,2,4]triazolo[1,5-a]pyridin-6-yl)piperidin-1-yl)sulfonyl)thiazole], for which the IC50 was determined as 291 nM.

Turning to `Cc1cc2ncnn2cc1C1CCN(S(=O)(=O)c2nncn2C)CC1` [Compound 524, 7-methyl-6-(1-((4-methyl-4H-1,2,4-triazol-3-yl)sulfonyl)piperidin-4-yl)-[1,2,4]triazolo[1,5-a]pyridine], the IC50 was 493 nM.

In the case of `O=S(=O)(c1cnc2sccn12)N1CCC(c2cn3ncnc3cc2F)CC1` [Compound 525, 5-((4-(7-fluoro-[1,2,4]triazolo[1,5-a]pyridin-6-yl)piperidin-1-yl)sulfonyl)imidazo[2,1-b]thiazole], the IC50 worked out at 186 nM.
